These results are taken from patent US10820591B2, “Substituted sulfonyl amides for controlling animal pests” (Bayer Aktiengesellschaft, priority 2016, dated 2020).

For the first experiment, the system named is Meloidogyne incognita. In words: Meloidogyne incognita test (sand, lettuce, gall formation). Conditions: 20 ppm, after 14 days. It counts as in vivo. The protocol:
Meloidogyne incognita Test [table] To produce a suitable active compound preparation, 1 part by weight of active compound is mixed with the stated amount of solvent and the concentrate is diluted to the desired concentration with water. Vessels are filled with sand, active compound solution, an egg/larvae suspension of the southern root-knot nematode (Meloidogyne incognita) and lettuce seeds. The lettuce seeds germinate and the plants develop. The galls develop on the roots. After 14 days, the nematicidal efficacy in % is determined by the formation of galls. 100% means that no galls were found; 0% means that the number of galls on the treated plants corresponds to the untreated control.
On to `COc1ccc(Cl)c(S(=O)(=O)NC(=O)c2cn(-c3cc(Cl)cc(Cl)c3)cn2)c1` [I-217], for which the “nematicidal efficacy (formation of galls)” value amounted to 90%.

Still in this experiment, the particulars now being: Meloidogyne incognita, 336 h, 20 ppm, after 14 days; read-out: nematicidal efficacy (formation of galls).
For `O=C(NS(=O)(=O)c1cc(Cl)ccc1Cl)c1cn(Cc2ccc(Cl)cc2)cn1` [I-154], the pest or weed control at 20 ppm came to 90%. Same read-out and setting: with `O=C(NS(=O)(=O)c1ccccc1)c1cn(Cc2ccccc2Cl)cn1` [I-155] the figure was 100%; with `O=C(NS(=O)(=O)c1c(Cl)cccc1Cl)c1cn(Cc2ccccc2Cl)cn1` [I-157], 90%. `O=C(NS(=O)(=O)c1ccccc1Cl)c1cn(Cc2cccc(Cl)c2)cn1` [I-159]: the pest or weed control at 20 ppm amounted to 100%. The same measure, in the same setting: with `O=C(NS(=O)(=O)c1c(Cl)cccc1Cl)c1cn(Cc2cccc(C(F)(F)F)c2)cn1` [I-161] the figure was 100%; with `O=C(NS(=O)(=O)c1ccccc1Cl)c1cn(Cc2cccc(C(F)(F)F)c2)cn1` [I-162], 100%; with `Cc1nc(C(=O)NS(=O)(=O)c2ccccc2Cl)cn1Cc1ccccc1Cl` [I-163], 90%. The same measure, in the same setting: with `O=C(NS(=O)(=O)c1cccc(Cl)c1)c1cn(Cc2ccc(Cl)cc2)cn1` [I-164] the figure was 90%; with `O=C(NS(=O)(=O)c1ccccc1Cl)c1cn(Cc2cc(Cl)cc(Cl)c2)cn1` [I-165], 100%; with `O=C(NS(=O)(=O)c1c(Cl)cccc1Cl)c1cn(Cc2cc(Cl)cc(Cl)c2)cn1` [I-166], 100%. On the same count and under the same terms, then `O=C(NS(=O)(=O)c1ccccc1)c1cn(Cc2cc(Cl)cc(Cl)c2)cn1` [I-167], with 90%; and `Cc1nc(C(=O)NS(=O)(=O)c2ccccc2Cl)cn1Cc1cccc(Cl)c1` [I-168], with 100%.

As for `Cc1nc(C(=O)NS(=O)(=O)c2c(Cl)cccc2Cl)cn1Cc1cccc(Cl)c1` [I-169], the pest or weed control at 20 ppm is 90%.

Take `O=C(NS(=O)(=O)c1ccccc1Cl)c1cn(-c2cccc(Cl)c2)cn1` [I-174]: the pest or weed control at 20 ppm is 100%. Still for that read-out and setting: with `O=C(NS(=O)(=O)c1c(Cl)cccc1Cl)c1cn(-c2cccc(Cl)c2)cn1` [I-175] the figure was 100%.

For `O=C(NS(=O)(=O)c1ccccc1Cl)c1cn(-c2cccc(C(F)(F)F)c2)cn1` [I-176], the pest or weed control at 20 ppm worked out at 100%.

For `O=C(NS(=O)(=O)c1c(Cl)cccc1Cl)c1cn(-c2cccc(C(F)(F)F)c2)cn1` [I-177], the pest or weed control at 20 ppm was 100%. On the same count and under the same terms, then `COc1ccc(Cl)c(S(=O)(=O)NC(=O)c2cn(-c3cccc(C(F)(F)F)c3)cn2)c1` [I-178], with 100%.

For `COc1ccc(Cl)c(S(=O)(=O)NC(=O)c2cn(-c3cccc(Cl)c3)cn2)c1` [I-179], the pest or weed control at 20 ppm is 90%. Same read-out and setting: then `O=C(NS(=O)(=O)c1ccccc1)c1cn(-c2cc(Cl)cc(Cl)c2)cn1` [I-180], with 100%; and `O=C(NS(=O)(=O)c1ccccc1Cl)c1cn(-c2cc(Cl)cc(Cl)c2)cn1` [I-181], with 100%; and `O=C(NS(=O)(=O)c1ccc(Cl)cc1)c1cn(-c2cc(Cl)cc(Cl)c2)cn1` [I-182], with 90%. On the same count and under the same terms, with `O=C(NS(=O)(=O)c1ccccc1Cl)c1cn(-c2ccccc2Cl)cn1` [I-183] the figure was 90%. On the same count and under the same terms, then `O=C(NS(=O)(=O)c1c(Cl)cccc1Cl)c1cn(-c2ccccc2Cl)cn1` [I-184], with 100%. For `O=C(NS(=O)(=O)c1ccccc1Cl)c1cn(-c2ccc(Cl)cc2)cn1` [I-185], the pest or weed control at 20 ppm was determined as 100%. Still for that read-out and setting: with `O=C(NS(=O)(=O)c1c(Cl)cccc1Cl)c1cn(-c2ccc(Cl)cc2)cn1` [I-186] the figure was 90%.

In the case of `O=C(NS(=O)(=O)c1c(Cl)cccc1Cl)c1cn(-c2cc(Cl)cc(Cl)c2)cn1` [I-187], the pest or weed control at 20 ppm worked out at 100%.

Regarding `COc1ccc(Cl)c(S(=O)(=O)NC(=O)c2cn(-c3cc(Cl)cc(Cl)c3)cn2)c1` [I-188], the pest or weed control at 20 ppm is 100%.

In the case of `O=C(NS(=O)(=O)c1ccc(Cl)cc1Cl)c1cn(-c2cc(Cl)cc(Cl)c2)cn1` [I-189], the pest or weed control at 20 ppm is 90%.

In the case of `COc1ccc(Cl)c(S(=O)(=O)NC(=O)c2cn(-c3ccc(Cl)cc3)cn2)c1` [I-190], the pest or weed control at 20 ppm came to 100%. The same measure, in the same setting: then `O=C(NS(=O)(=O)c1ccccc1Cl)c1cn(-c2ccccc2)cn1` [I-191], with 100%.

On to `O=C(NS(=O)(=O)c1c(Cl)cccc1Cl)c1cn(-c2ccccc2)cn1` [I-192], for which the pest or weed control at 20 ppm was found to be 100%. Take `O=C(NS(=O)(=O)c1ccccc1)c1cn(-c2ccc(Cl)c(Cl)c2)cn1` [I-193]: the pest or weed control at 20 ppm came to 100%.

In the case of `O=C(NS(=O)(=O)c1ccccc1)c1cn(-c2ccc(C(F)(F)F)cc2Cl)cn1` [I-194], the pest or weed control at 20 ppm came out at 100%. On the same count and under the same terms, with `O=C(NS(=O)(=O)c1ccccc1)c1cn(-c2cc(Cl)ccc2Cl)cn1` [I-195] the figure was 100%; with `O=C(NS(=O)(=O)c1ccccc1Cl)c1cn(-c2ccc(Cl)c(Cl)c2)cn1` [I-196], 100%; with `O=C(NS(=O)(=O)c1c(Cl)cccc1Cl)c1cn(-c2ccc(C(F)(F)F)cc2Cl)cn1` [I-198], 100%. As for `O=C(NS(=O)(=O)c1ccccc1)c1cn(-c2ccc(Cl)cc2Cl)cn1` [I-199], the pest or weed control at 20 ppm came to 100%. Regarding `O=C(NS(=O)(=O)c1ccccc1Cl)c1cn(-c2ccc(Cl)cc2Cl)cn1` [I-200], the pest or weed control at 20 ppm came out at 100%. The same measure, in the same setting: with `O=C(NS(=O)(=O)c1ccc(Cl)cc1)c1cn(-c2ccc(Cl)cc2Cl)cn1` [I-201] the figure was 80%; with `O=C(NS(=O)(=O)c1ccc(Cl)cc1)c1cn(-c2ccc(Cl)c(Cl)c2)cn1` [I-202], 70%.

For the molecule `O=C(NS(=O)(=O)c1ccccc1Cl)c1cn(-c2cc(Cl)ccc2Cl)cn1` [I-203], the pest or weed control at 20 ppm came out at 100%. As to `O=C(NS(=O)(=O)c1ccc(Cl)cc1)c1cn(-c2cc(Cl)ccc2Cl)cn1` [I-204], the pest or weed control at 20 ppm was 100%. For the molecule `O=C(NS(=O)(=O)c1c(Cl)cccc1Cl)c1cn(-c2cc(Cl)ccc2Cl)cn1` [I-205], the pest or weed control at 20 ppm was determined as 100%. Still for that read-out and setting: then `O=C(NS(=O)(=O)c1c(Cl)cccc1Cl)c1cn(-c2ccc(Cl)cc2Cl)cn1` [I-206], with 100%; and `O=C(NS(=O)(=O)c1cccc(Cl)c1)c1cn(-c2ccc(C(F)(F)F)cc2Cl)cn1` [I-207], with 100%. Regarding `O=C(NS(=O)(=O)c1ccc(Cl)cc1Cl)c1cn(-c2ccc(Cl)cc2Cl)cn1` [I-208], the pest or weed control at 20 ppm was determined as 100%. On to `Cc1ccc(-n2cnc(C(=O)NS(=O)(=O)c3ccccc3)c2)cc1` [I-209], for which the pest or weed control at 20 ppm is 90%. The same measure, in the same setting: then `Cc1ccc(-n2cnc(C(=O)NS(=O)(=O)c3ccccc3Cl)c2)cc1` [I-210], with 100%.

As to `COc1ccc(-n2cnc(C(=O)NS(=O)(=O)c3ccccc3)c2)cc1` [I-211], the pest or weed control at 20 ppm was 100%.

Regarding `Cc1ccc(-n2cnc(C(=O)NS(=O)(=O)c3c(Cl)cccc3Cl)c2)cc1` [I-212], the pest or weed control at 20 ppm is 90%. Same read-out and setting: with `COc1ccc(Cl)c(S(=O)(=O)NC(=O)c2cn(-c3ccc(C)cc3)cn2)c1` [I-213] the figure was 90%.

For `O=C(NS(=O)(=O)c1ccccc1Cl)c1cn(-c2ccc(F)cc2F)cn1` [I-215], the pest or weed control at 20 ppm stood at 100%. On the same count and under the same terms, with `COc1ccc(Cl)c(S(=O)(=O)NC(=O)c2cn(-c3ccc(Cl)cc3Cl)cn2)c1` [I-216] the figure was 90%. On the same count and under the same terms, then `COc1ccc(Cl)c(S(=O)(=O)NC(=O)c2cn(-c3ccc(Cl)c(Cl)c3)cn2)c1` [I-218], with 70%; and `COc1ccc(Cl)c(S(=O)(=O)NC(=O)c2cn(-c3ccc(C(F)(F)F)cc3Cl)cn2)c1` [I-219], with 90%. Still for that read-out and setting: then `O=C(NS(=O)(=O)c1ccccc1)c1cn(-c2ccccc2F)cn1` [I-221], with 90%; and `O=C(NS(=O)(=O)c1c(F)cccc1F)c1cn(-c2cc(Cl)cc(Cl)c2)cn1` [I-222], with 100%; and `O=C(NS(=O)(=O)c1c(F)cccc1F)c1cn(-c2ccc(C(F)(F)F)cc2Cl)cn1` [I-223], with 100%. Consider `O=C(NS(=O)(=O)c1c(F)cccc1F)c1cn(-c2ccccc2OC(F)(F)F)cn1` [I-224], for which the pest or weed control at 20 ppm is 90%. On the same count and under the same terms, with `O=C(NS(=O)(=O)c1ccccc1Cl)c1cn(-c2ccccc2OC(F)(F)F)cn1` [I-225] the figure was 100%; with `O=C(NS(=O)(=O)c1c(Cl)cccc1Cl)c1cn(-c2ccccc2OC(F)(F)F)cn1` [I-226], 100%; with `COc1ccc(Cl)c(S(=O)(=O)NC(=O)c2cn(-c3ccccc3OC(F)(F)F)cn2)c1` [I-227], 100%. In the case of `COc1ccc(Cl)c(S(=O)(=O)NC(=O)c2cn(-c3ccccc3F)cn2)c1` [I-228], the pest or weed control at 20 ppm is 90%. Still for that read-out and setting: then `O=C(NS(=O)(=O)c1ccccc1Cl)c1cn(-c2ccccc2F)cn1` [I-229], with 100%; and `O=C(NS(=O)(=O)c1cc(Cl)ccc1Cl)c1cn(-c2cc(Cl)cc(Cl)c2)cn1` [I-230], with 100%; and `COc1ccc(Cl)cc1S(=O)(=O)NC(=O)c1cn(-c2cc(Cl)ccc2Cl)cn1` [I-231], with 100%.

As for `O=C(NS(=O)(=O)c1cc(Cl)ccc1Cl)c1cn(-c2ccccc2F)cn1` [I-232], the pest or weed control at 20 ppm was found to be 100%. Still for that read-out and setting: then `O=C(NS(=O)(=O)c1cc(F)ccc1F)c1cn(-c2cc(Cl)ccc2Cl)cn1` [I-233], with 100%; and `O=C(NS(=O)(=O)c1cc(F)ccc1F)c1cn(-c2cc(Cl)cc(Cl)c2)cn1` [I-234], with 70%.
